Laboratory results: ChEMBL document CHEMBL5512636, “Novel 6-hydroxybenzothiazol-2-carboxamides as potent and selective monoamine oxidase B inhibitors endowed with neuroprotective activity” (Eur J Med Chem, 2024)

Tests used:
[1] = target: T1, Amine oxidase [flavin-containing] B (Homo sapiens, UniProt P27338); assay: Inhibition of human MAO-B incubated for 30 mins by Amplex Red assay
T1 sequence (P27338 whole entry): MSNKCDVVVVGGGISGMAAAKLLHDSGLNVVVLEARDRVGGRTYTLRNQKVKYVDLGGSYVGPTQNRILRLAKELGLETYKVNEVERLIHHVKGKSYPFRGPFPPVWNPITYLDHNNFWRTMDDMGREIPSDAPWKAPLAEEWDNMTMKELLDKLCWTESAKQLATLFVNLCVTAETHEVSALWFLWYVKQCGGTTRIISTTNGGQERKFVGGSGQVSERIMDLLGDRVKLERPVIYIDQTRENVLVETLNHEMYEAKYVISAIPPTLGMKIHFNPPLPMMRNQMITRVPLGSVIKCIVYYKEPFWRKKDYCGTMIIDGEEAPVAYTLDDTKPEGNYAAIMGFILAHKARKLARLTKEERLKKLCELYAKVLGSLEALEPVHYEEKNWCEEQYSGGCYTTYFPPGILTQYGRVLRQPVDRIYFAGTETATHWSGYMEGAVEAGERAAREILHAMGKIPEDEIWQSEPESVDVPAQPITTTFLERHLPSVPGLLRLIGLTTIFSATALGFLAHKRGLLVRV

[2] = target: T2, Amine oxidase [flavin-containing] A (Homo sapiens, UniProt P21397); assay: Inhibition of recombinant human MAO-A expressed in baculovirus infected insect cells using kynuramine as substrate at 10 uM by fluorescence based method relative to control; conditions: Insect cell
T2 sequence (P21397 whole entry): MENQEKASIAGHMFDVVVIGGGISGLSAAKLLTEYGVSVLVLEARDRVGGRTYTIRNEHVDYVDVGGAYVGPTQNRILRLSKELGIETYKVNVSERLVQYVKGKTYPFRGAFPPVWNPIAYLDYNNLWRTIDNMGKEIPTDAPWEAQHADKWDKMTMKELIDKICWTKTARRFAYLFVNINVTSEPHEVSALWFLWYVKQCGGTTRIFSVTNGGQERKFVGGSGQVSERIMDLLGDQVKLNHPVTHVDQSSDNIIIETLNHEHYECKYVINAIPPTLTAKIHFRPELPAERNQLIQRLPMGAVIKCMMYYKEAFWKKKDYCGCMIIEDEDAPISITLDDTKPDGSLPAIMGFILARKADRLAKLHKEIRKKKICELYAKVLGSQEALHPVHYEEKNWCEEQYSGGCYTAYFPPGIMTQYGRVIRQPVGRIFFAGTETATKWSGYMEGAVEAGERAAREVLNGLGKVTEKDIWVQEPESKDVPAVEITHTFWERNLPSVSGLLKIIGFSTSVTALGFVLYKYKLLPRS

[3] = target: T1, Amine oxidase [flavin-containing] B; assay: Inhibition of recombinant human MAO-B expressed in baculovirus infected insect cells using kynuramine as substrate at 10 uM by fluorescence based method relative to control; conditions: Insect cell
[4] = target: T3, Amine oxidase [flavin-containing] B (Rattus norvegicus, UniProt P19643); assay: Inhibition of rat brain mitochondria MAO-B using benzylamine as substrate incubated for 30 mins by absorbance based assay
T3 sequence (P19643 whole entry): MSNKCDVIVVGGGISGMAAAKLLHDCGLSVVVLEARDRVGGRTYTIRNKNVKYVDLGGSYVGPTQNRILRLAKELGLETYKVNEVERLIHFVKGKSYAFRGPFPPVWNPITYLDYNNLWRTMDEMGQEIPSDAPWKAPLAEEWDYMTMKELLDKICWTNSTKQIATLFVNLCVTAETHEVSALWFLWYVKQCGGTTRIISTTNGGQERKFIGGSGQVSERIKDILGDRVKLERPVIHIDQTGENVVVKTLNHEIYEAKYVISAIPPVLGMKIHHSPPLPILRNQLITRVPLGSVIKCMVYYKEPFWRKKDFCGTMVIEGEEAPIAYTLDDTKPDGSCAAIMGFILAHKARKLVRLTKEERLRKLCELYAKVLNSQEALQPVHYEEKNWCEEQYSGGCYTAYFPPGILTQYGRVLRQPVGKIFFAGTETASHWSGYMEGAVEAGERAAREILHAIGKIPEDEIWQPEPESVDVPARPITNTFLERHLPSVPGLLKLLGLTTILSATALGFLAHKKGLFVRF

[5] = target: Microtubule-associated protein tau (Homo sapiens, UniProt P10636); assay: Inhibition of GFP/RFP-fused tau oligomerization in human SH-SY5Y cells incubated for 2 hrs by FRET assay; format: cell-based
[6] = target: T2, Amine oxidase [flavin-containing] A; assay: biochemical
Description: Inhibition of recombinant human MAO-A expressed in baculovirus infected insect cells using kynuramine as substrate by fluorescence based method

[7] = target: T1, Amine oxidase [flavin-containing] B; assay: biochemical; format: cell-based, Insect cell
Description: Inhibition of recombinant human MAO-B expressed in baculovirus infected insect cells using kynuramine as substrate by fluorescence based method

[8] = Permeability of compound by PAMPA

Microtubule-associated protein tau, sequence (P10636 whole entry, the tested form may be a part): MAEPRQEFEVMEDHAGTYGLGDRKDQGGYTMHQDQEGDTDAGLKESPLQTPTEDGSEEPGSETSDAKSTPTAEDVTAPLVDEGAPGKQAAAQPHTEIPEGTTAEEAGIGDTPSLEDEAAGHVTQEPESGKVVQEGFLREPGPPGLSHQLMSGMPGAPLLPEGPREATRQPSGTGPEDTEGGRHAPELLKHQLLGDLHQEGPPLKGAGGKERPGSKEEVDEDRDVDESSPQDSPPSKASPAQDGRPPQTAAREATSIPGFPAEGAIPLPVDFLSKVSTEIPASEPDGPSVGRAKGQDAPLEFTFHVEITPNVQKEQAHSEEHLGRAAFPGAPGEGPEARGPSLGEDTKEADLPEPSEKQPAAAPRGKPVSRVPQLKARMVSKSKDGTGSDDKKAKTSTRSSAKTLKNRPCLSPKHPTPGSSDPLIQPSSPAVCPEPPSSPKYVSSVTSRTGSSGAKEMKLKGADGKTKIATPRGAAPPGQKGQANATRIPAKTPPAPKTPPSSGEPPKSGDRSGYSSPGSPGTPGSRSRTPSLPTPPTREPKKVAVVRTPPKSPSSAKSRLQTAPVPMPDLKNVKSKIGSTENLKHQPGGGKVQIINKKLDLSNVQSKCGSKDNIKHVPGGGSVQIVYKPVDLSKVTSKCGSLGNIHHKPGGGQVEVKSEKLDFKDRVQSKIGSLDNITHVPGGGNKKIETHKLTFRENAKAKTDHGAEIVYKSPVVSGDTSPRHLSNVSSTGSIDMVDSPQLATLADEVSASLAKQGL

inhibition at 10 µM [2] [%]	SMILES	other results
	COc1ccc2sc(SC(=O)N/N=C\c3csc([N+](=O)[O-])c3)nc2c1	IC50 [1]: 60 nM
22	COc1ccc(CNC(=O)c2nc3ccc(O)cc3s2)cc1	inhibition at 10 µM [3]: 53%
16	O=C(NCc1ccccc1F)c1nc2ccc(O)cc2s1	
30	O=C(NCc1ccc(-c2ccccc2)cc1)c1nc2ccc(O)cc2s1	
13	COc1ccc(CNC(=O)c2nc3ccc(O)cc3s2)cc1OC	
19	O=C(NCc1cccc(F)c1F)c1nc2ccc(O)cc2s1	
21	O=C(c1nc2ccc(O)cc2s1)N1Cc2ccc(Cl)cc2C1	
35	O=C(NCc1ccc(F)cc1F)c1nc2ccc(O)cc2s1	
	O=C(N/N=C(\c1ccccc1)c1ccc(Cl)cc1)Nc1nc2ccc([N+](=O)[O-])cc2s1	IC50 [4]: 4 nM
51	O=C(NCCc1cc2ccccc2[nH]1)c1nc2ccc(O)cc2s1	EC50 [5]: 7520 nM
25	COc1ccccc1CNC(=O)c1nc2ccc(O)cc2s1	
> 60	COc1ccc2nc(C(=O)NC3CCCCC3)sc2c1	IC50 [6]: 3820 nM
8	O=C(NCc1cccc(F)c1)c1nc2ccc(O)cc2s1	
15	O=C(NCc1ccc([N+](=O)[O-])cc1)c1nc2ccc(O)cc2s1	
33	O=C(NCc1cccs1)c1nc2ccc(O)cc2s1	
18	O=C(NCc1ccc(-c2cccs2)cc1)c1nc2ccc(O)cc2s1	inhibition at 10 µM [3]: 30%
13	O=C(NC1CC1)c1nc2ccc(O)cc2s1	inhibition at 10 µM [3]: 52%
26	COc1ccc(CNC(=O)c2nc3ccc(O)cc3s2)c(OC)c1	
28	O=C(NCc1cccc(Cl)c1)c1nc2ccc(O)cc2s1	
19	Cc1cccc(CNC(=O)c2nc3ccc(O)cc3s2)c1	
18	O=C(NCc1ccccc1)c1nc2ccc(O)cc2s1	IC50 [7]: 552 nM
21	O=C(NCc1ccc(Cl)cc1)c1nc2ccc(O)cc2s1	
11	COc1cccc(CNC(=O)c2nc3ccc(O)cc3s2)c1OC	
18	COc1cccc(CNC(=O)c2nc3ccc(O)cc3s2)c1	

inhibition at 10 µM [2] [%]	SMILES	other results
29	O=C(NCc1ccc(F)c(F)c1)c1nc2ccc(O)cc2s1	
> 80	O=C(Nc1nc2ccc(O)cc2s1)C1CCCCC1	IC50 [6]: 1920 nM
26	O=C(NCc1cc(C(F)(F)F)cc(C(F)(F)F)c1)c1nc2ccc(O)cc2s1	
19	CC(C)(C)c1ccc(CNC(=O)c2nc3ccc(O)cc3s2)cc1	inhibition at 10 µM [3]: 44%
32	COc1ccc(CNC(=O)c2nc3ccc(O)cc3s2)cc1F	
26	O=C(NC1CCCCC1)c1nc2ccccc2s1	
28	O=C(NCc1cccnc1)c1nc2ccc(O)cc2s1	inhibition at 10 µM [3]: 48%
52	O=C(NCc1ccc(F)cc1)c1nc2ccc(O)cc2s1	
17	O=C(c1nc2ccc(O)cc2s1)N1CCc2ccccc2C1	
35	O=C(NC1CCCC1)c1nc2ccc(O)cc2s1	
59	O=C(NCC#Cc1ccccc1)c1nc2ccc(O)cc2s1	
10	O=C(NCc1ccco1)c1nc2ccc(O)cc2s1	inhibition at 10 µM [3]: 41%
36	O=C(NCCc1ccccc1)c1nc2ccc(O)cc2s1	EC50 [5]: 10500 nM
13	O=C(NCC(c1ccccc1)c1ccccc1)c1nc2ccc(O)cc2s1	inhibition at 10 µM [3]: 43%
15	Cc1ccccc1CNC(=O)c1nc2ccc(O)cc2s1	
32	O=C(NC1CCCCC1)c1nc2ccc(O)cc2s1	
26	Cc1cc(C)cc(CNC(=O)c2nc3ccc(O)cc3s2)c1	
37	CCCCCCNC(=O)c1nc2ccc(O)cc2s1	
22	Cc1ccc(CNC(=O)c2nc3ccc(O)cc3s2)cc1	
43	COc1cc(CNC(=O)c2nc3ccc(O)cc3s2)cc(OC)c1	
24	O=C(NCc1ccccc1Cl)c1nc2ccc(O)cc2s1	
16	O=C(c1nc2ccc(O)cc2s1)N1CCCCC1	inhibition at 10 µM [3]: 31%
32	O=C(NCC1CCCCC1)c1nc2ccc(O)cc2s1	
	CCn1cc(C(=O)O)c(=O)c2cc(F)c(N3CCNCC3)cc21 [NORFLOXACIN]	Papp [8]: 1.25 ×10⁻⁶ cm/s
